According to publication PMC5522258 (Oncotarget, 2017):
Where “and” joins values, the source holds several entries; their conditions need not be identical. Equal values may be shown once. Read-outs that look alike come from different tables or passages of the source. Each block holds one compound with its values, some of them ahead of it.

Tests used:
[1] = biological target: T1, UGT1A9 (Homo sapiens, UniProt O60656); assay: SN-38 glucuronidation by human recombinant UGT1A9, with and without vorinostat; assay type: in vitro ADME
T1 construct: purchased BD Gentest
T1 sequence (O60656 26-530): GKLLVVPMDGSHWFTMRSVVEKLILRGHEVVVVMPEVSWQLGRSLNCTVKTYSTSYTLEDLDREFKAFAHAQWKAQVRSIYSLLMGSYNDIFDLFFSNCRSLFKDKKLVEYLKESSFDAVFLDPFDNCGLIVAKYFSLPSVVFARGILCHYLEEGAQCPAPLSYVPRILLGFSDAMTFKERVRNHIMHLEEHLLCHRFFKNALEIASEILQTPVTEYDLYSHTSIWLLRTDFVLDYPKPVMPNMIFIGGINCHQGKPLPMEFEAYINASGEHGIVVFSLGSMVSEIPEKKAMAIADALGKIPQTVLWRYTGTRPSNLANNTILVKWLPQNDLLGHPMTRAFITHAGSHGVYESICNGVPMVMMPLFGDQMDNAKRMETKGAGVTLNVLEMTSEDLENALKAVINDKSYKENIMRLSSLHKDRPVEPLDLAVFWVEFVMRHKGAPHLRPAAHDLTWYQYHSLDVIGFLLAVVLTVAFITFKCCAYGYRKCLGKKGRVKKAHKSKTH
Experimental: (§1) All experiments were carried out in triplicate. […] Data were considered statistically significant when p < 0.05.

[2] = biological target: T2, UGT1A1 (Homo sapiens, UniProt P22309); assay: in vitro; conditions: pooled liver microsomes, UGT1A1*28*28 (7/7) genotype, pH 7.4
T2 sequence (P22309 26-533): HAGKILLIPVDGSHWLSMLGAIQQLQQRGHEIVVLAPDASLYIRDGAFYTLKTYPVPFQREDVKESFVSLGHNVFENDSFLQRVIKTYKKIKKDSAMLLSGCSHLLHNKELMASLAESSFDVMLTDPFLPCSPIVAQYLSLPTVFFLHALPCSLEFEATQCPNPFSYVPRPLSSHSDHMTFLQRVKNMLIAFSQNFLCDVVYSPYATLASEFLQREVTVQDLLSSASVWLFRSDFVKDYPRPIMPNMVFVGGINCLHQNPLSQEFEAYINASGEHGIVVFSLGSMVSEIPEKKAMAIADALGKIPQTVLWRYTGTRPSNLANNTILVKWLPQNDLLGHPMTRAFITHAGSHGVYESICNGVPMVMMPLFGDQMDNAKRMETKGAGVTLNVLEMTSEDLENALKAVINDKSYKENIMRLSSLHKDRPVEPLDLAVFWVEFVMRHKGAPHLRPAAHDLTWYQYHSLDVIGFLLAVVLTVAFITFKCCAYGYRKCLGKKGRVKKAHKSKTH
Experimental: (§3) Ten microliter aliquots were injected into a high-performance liquid chromatograph assay system (Agilent 1100, Germany) with tandem mass spectrometric detection (API 4000 triple-quadrupole mass spectrometer; AB Sciex, Concord, Canada). Baseline separation of the analytes was achieved on the Alltima C18 (150 mm x 2.1 mm, 5 μm) column. The mobile phase A and B consisted of 100% acetonitrile and 0.1% formic acid, respectively.
(§4) After pre-incubation, the reaction was started with the addition of UGT1A1 or pooled HLMs (0.5 mg/mL). Reaction mixtures were incubated at 37°C for 30 minutes.
(§5) All experiments were carried out in triplicate. SN-38G formation velocity (ν) was calculated as Cm, 30 min/incubation time/microsomal protein concentration, where Cm, 30 min was the metabolite concentration after 30 min incubation. Plots of substrate concentration, S (X axis) versus ν (Y axis) were then constructed. Km and Vmax were calculated by the Michaelis-Menten Equation 1 below using GraphPad software v5.01 (GraphPad Software, Inc., San Diego, CA, USA). The kinetic parameter Vmax/Km, which is equivalent to intrinsic clearance (CLint) (Equation 2), was derived from the slope of the plot of the rate of product formation versus substrate concentration. Comparisons of CLint between two groups were performed by a paired t-test.

[3] = more potent than irinotecan; cited from earlier work
[4] = biological target: T2, UGT1A1; assay: in vitro; conditions: pooled liver microsomes, UGT1A1*1*28 (6/7) genotype, pH 7.4
Experimental: as §3, §4, §5

[5] = biological target: T2, UGT1A1; assay: SN-38 glucuronidation (SN-38G formation) by human recombinant UGT1A1, with and without HDACi; assay type: in vitro ADME; conditions: for decrease of CLint: p < 0.05
Experimental: (§2) UGT1A1, UGT1A6 and UGT1A7 were chosen since these UGTs could be responsible for glucuronidating panobinostat.
as §1

[6] = test system: UGT1A1; assay: SN-38 glucuronidation by pooled HLMs, 50 donor pool (wild type, 6/6), with and without belinostat; assay type: in vitro ADME, human; conditions: human, pH 7.4; 50 donor pool HLMs (6/6), without belinostat; read-out: intrinsic clearance (CLint) of SN-38G formation
Experimental: as §1

[7] = test system: pooled HLMs (50 donor pool, wild-type 6/6 genotype); assay: as above; assay type: in vitro ADME, human; conditions: for decrease of CLint: 50 donor pool HLMs (6/6), p < 0.05
Experimental: as §1

[8] = cited from earlier work
[9] = biological target: T3, pooled HLMs (UGT1A1*1*28 allelic variant, 6/7) (Homo sapiens, UniProt P22309)
T3 sequence (P22309 26-533): T2 sequence (P22309 26-533)
Experimental: as §3, §4, §5

[10] = biological target: T4, pooled HLMs (UGT1A1*28*28 allelic variant, 7/7) (Homo sapiens, UniProt P22309)
T4 sequence (P22309 26-533): T2 sequence (P22309 26-533)
Experimental: as §3, §4, §5

[11] = biological target: T5, UGT1A7 (Homo sapiens, UniProt Q9HAW7); assay: SN-38 glucuronidation by human recombinant UGT1A7, with and without panobinostat; assay type: in vitro ADME; conditions: UGT1A7, panobinostat 20 and 200 nmol/L; CLint increases insignificant (p > 0.05)
T5 construct: purchased BD Gentest
T5 sequence (Q9HAW7 26-530): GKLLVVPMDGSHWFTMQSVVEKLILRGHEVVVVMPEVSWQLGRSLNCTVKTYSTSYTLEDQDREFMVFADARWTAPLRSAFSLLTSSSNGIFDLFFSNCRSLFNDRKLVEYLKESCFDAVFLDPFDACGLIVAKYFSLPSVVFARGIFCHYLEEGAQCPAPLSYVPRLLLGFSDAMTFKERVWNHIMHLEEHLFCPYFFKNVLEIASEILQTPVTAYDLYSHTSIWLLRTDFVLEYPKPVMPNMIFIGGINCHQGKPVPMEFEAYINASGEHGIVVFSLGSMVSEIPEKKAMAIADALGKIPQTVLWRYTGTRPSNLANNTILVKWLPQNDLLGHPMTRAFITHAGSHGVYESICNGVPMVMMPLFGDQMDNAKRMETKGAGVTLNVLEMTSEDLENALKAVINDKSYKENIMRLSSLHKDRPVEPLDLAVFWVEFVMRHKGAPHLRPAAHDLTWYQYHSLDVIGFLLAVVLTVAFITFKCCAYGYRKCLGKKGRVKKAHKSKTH
Experimental: as §2, §1

[12] = biological target: T6, UGT1A6 (Homo sapiens, UniProt P19224); assay: SN-38 glucuronidation by human recombinant UGT1A6, with and without panobinostat; assay type: in vitro ADME; conditions: UGT1A6, panobinostat 20 and 200 nmol/L; CLint increases insignificant (p > 0.05)
T6 construct: purchased BD Gentest
T6 sequence (P19224 27-532): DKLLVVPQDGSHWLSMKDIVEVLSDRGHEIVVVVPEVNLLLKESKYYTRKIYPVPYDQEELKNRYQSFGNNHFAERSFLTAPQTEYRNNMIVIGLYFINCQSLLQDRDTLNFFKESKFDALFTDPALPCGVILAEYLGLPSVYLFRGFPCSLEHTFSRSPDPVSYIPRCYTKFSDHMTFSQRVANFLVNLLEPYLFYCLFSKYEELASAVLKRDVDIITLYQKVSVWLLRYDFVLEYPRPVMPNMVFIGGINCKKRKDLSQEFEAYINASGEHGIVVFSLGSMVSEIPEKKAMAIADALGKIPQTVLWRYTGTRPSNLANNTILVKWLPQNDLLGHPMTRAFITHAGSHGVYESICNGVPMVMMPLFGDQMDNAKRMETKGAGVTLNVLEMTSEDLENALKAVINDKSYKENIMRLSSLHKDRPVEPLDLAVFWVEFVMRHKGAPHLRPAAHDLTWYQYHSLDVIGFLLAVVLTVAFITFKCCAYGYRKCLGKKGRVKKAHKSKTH
Experimental: as §2, §1

- microsomal CLint ([1]; human, recombinant UGT1A9, read-out: CLint of SN-38G): 7.48 µL/min/mg
- microsomal CLint [2]: 5.4 µL/min/mg
- microsomal CLint [4]: 29.2 µL/min/mg
- microsomal CLint ([5]; human, pH 7.4, recombinant UGT1A1, without belinostat, read-out: intrinsic clearance (CLint) of SN-38G formation): 21.6 µL/min/mg
- microsomal CLint [6]: 81.2 µL/min/mg
SMILES: CCc1c2c(nc3ccc(O)cc13)-c1cc3c(c(=O)n1C2)COC(=O)[C@]3(O)CC [SN-38, 7-ethyl-10-hydroxycamptothecin]
- potency relative to irinotecan [3]: 100-1000 times
- SN-38 glucuronidation activity (Vmax) ([7]; HLMs wild type 6/6, without belinostat): 41.13 pmol/min/mg

- inhibition type ([9]; SN-38 glucuronidation by HLMs (6/7)): non-competitive inhibition
- decrease of SN-38G formation rate compared to wild type ([9]; UGT1A1*1*28 (6/7) HLMs vs wild type 6/6, both with belinostat 200 μmol/L): ~ 64%
- decrease of CLint ([9]; UGT1A1*1*28 (6/7) HLMs, belinostat 200 μmol/L vs none, p < 0.05): 79%
- rate of SN-38G formation (Vmax) ([9]; UGT1A1*1*28 (6/7) HLMs, with belinostat 200 μmol/L): 3.77 pmol/min/mg
- inhibition type ([5]; SN-38 glucuronidation by UGT1A1): non-competitive
- interaction with irinotecan (SN-38 glucuronidation) ([5]; belinostat 10 μmol/L, simulating oral dosing): would not have significant interactions
- decrease of CLint ([5]; recombinant UGT1A1, belinostat 100 μmol/L vs no belinostat): ~ 62%
- decrease of CLint ([5]; recombinant UGT1A1, belinostat 200 μmol/L vs no belinostat): 81%
- Vmax of SN-38 glucuronidation ([5]; recombinant UGT1A1, with belinostat (abstract: 100 and 200 µmol/L; lowest value, taken as 200 µmol/L)): 1.95 pmol/min/mg
- inhibition type ([10]; SN-38 glucuronidation by HLMs (7/7)): non-competitive inhibition
- decrease of SN-38G formation rate compared to wild type ([10]; UGT1A1*28*28 (7/7) HLMs vs wild type 6/6, both with belinostat 200 μmol/L): ~ 64% and ~ 68%
- decrease of CLint ([10]; UGT1A1*28*28 (7/7) HLMs, belinostat 200 μmol/L vs none, p < 0.05): 75%
- rate of SN-38G formation (Vmax) ([10]; UGT1A1*28*28 (7/7) HLMs, with belinostat 200 μmol/L): 3.30 pmol/min/mg
- decrease of CLint ([7]; belinostat 100 μmol/L vs none): 56%
- decrease of CLint ([7]; belinostat 200 μmol/L vs none): 68%
SMILES: O=C(/C=C/c1cccc(S(=O)(=O)Nc2ccccc2)c1)NO [belinostat]
- Cmax ([8]; high-dose intravenous administration): 200 µM
- Cmax ([8]; oral administration): 10 µM
- SN-38 glucuronidation activity (Vmax) ([7]; HLMs wild type 6/6, with belinostat 200 µmol/L): 10.54 pmol/min/mg
- inhibition type ([7]; SN-38 glucuronidation by HLMs (6/6)): non-competitive inhibition

- inhibitory effect on SN-38 glucuronidation [11]: not found to have any inhibitory effect
- inhibitory effect on SN-38 glucuronidation [12]: not found to have any inhibitory effect
- inhibitory effect on SN-38 glucuronidation ([5]; UGT1A1, panobinostat 20 and 200 nmol/L, CLint increases insignificant (p > 0.05)): not found to have any inhibitory effect
SMILES: Cc1[nH]c2ccccc2c1CCNCc1ccc(/C=C/C(=O)NO)cc1 [panobinostat]
- Cmax ([8]; intravenous administration): 0.2 µM
- Cmax ([8]; oral administration): 0.02 µM

- inhibition of UGT1A9 (SN-38 glucuronidation) ([1]; vorinostat 2 µmol/L (therapeutic concentration)): no significant inhibition
SMILES: O=C(CCCCCCC(=O)Nc1ccccc1)NO [vorinostat]
